Values of other authors, collected in PMC13151045, “Accounting for Differences in Plasma Protein Binding between Fish and Humans for Supporting Environmental Risk Assessment of Pharmaceuticals Using the Fish Plasma Model” (Environmental Science & Technology, 2026).

Conditions: minimum reported human therapeutic plasma concentration; ref footnote e of Table 4

Human C max [ng/mL] | Structure (SMILES)
20 | CC(C)NCC(O)COc1cccc2ccccc12 (centres unmarked) [Propranolol]
55.8 | CC1Cc2ccccc2N1NC(=O)c1ccc(Cl)c(S(N)(=O)=O)c1 (centres unmarked) [Indapamide]
